Patent US20190239509A1, “METHOD OF CONTROLLING PLANTS” (SYNGENTA PARTICIPATIONS AG, priority 2016, published 2019)

Columns and labels:
Format in all cases: in vivo
[1] = test system: Amaranthus retroflexus (AMARE); test: B3 drilled field trial Brazil, post-emergence, AMARE; details: 28 days after application, 100=total damage, 0=no damage
Procedure: (§1) Seeds of a variety of test species were used in drilled field trials to look at the control of important weed species present in corn crops as well as the effect on soybean (a volunteer crop in corn). Trials were carried out in Brazil in the summer season and the second season.
(§2) Plot size was 10-15 m^2, and two replicates were carried out per treatment. Plants were treated post-emergence between the 2 and 4 leaf stage. Species tested were Amaranthus retroflexus (AMARE), Ipomoea grandifolia (IAQGR), Digitaria horizontalis (DIGHO), Bidens pilosa (BIDPI), Eleusine indica (ELEIN), Brachiaria decumbens (BRADC), Centrus echinatus (CCHEC), Euphorbia heterophylla (EPPHL), Brachiaria plantaginea (BRAPL) and Glycine max (GLXMA; soybean). Fungicides and insecticides were used as necessary for plant health. The test was evaluated at 28 days after application with 100=total damage to plant and 0=no damage to plant.
(§3) Expected results were calculated using the Colby Formula.

[2] = test system: Bidens pilosa (BIDPI); test: B3 drilled field trial Brazil, post-emergence, BIDPI; details: 28 days after application
Procedure: as §1, §2, §3

[3] = test system: Amaranthus viridis (AMAVI); test: B2 drilled field trial Brazil, post-emergence, AMAVI; details: 100=total damage, 0=no damage; for AMAVI 7DAA Observed: 7 days after application; for AMAVI 30 DAA Observed: 30 days after application
Procedure: (§4) Seeds of a variety of test species were used in drilled field trials to look at the control of important weed species present in corn crops as well as the effect on soybean (a volunteer crop in corn). Trials were carried out in Brazil in the summer season.
(§5) Plot size was 10-12 m^2, and two replicates were carried out per treatment. Plants were treated post-emergence at the 4 leaf stage. Fungicides and insecticides were used as necessary for plant health. The test was evaluated at 7 and 30 days after application (Amaranthus viridis (AMAVI), Bidens pilosa (BIDPI), Euphorbia heterophylla (EPPHL)) and 9 and 37 days after application (Brachiaria plantaginea (BRAPL) and soybean (Glycine max GLXMA) with 100=total damage to plant and 0=no damage to plant.
as §3

[4] = test system: Brachiaria plantaginea (BRAPL); test: B3 drilled field trial Brazil, post-emergence, BRAPL; details: Summer season, 28 days after application
Procedure: as §1, §2, §3

[5] = test system: Bidens pilosa (BIDPI); test: B2 drilled field trial Brazil, post-emergence, BIDPI; details: 100=total damage, 0=no damage; for BIDPI 7DAA Observed: 7 days after application; for BIDPI 30 DAA Observed: 30 days after application
Procedure: as §4, §5, §3

[6] = test system: Centrus echinatus (CCHEC); test: B3 drilled field trial Brazil, post-emergence, CCHEC; details: 28 days after application
Procedure: as §1, §2, §3

[7] = test system: Brachiaria plantaginea (BRAPL); test: B2 drilled field trial Brazil, post-emergence, BRAPL; details: 100=total damage, 0=no damage; for BRAPL 9DAA Observed: 9 days after application; for BRAPL 37 DAA Observed: 37 days after application
Procedure: as §4, §5, §3

[8] = test system: Brachiaria decumbens (BRADC); test: B3 drilled field trial Brazil, post-emergence, BRADC; details: 28 days after application
Procedure: as §1, §2, §3

CCOC1C(O)N(c2cc(C(C)(C)C)on2)C(=O)N1C (stereo not drawn) [Compound 1.4]
AMARE Summer season Observed ([1]; 75 g ai/ha): 80 | AMARE Second season Observed ([1]; 100 g ai/ha): 39 | AMARE Summer season Observed ([1]; 100 g ai/ha): 90 | AMARE Second season Observed ([1]; 150 g ai/ha): 52 | AMARE Summer season Observed ([1]; 150 g ai/ha): 100 | Observed damage (100=total damage to plant, 0=no damage) ([2]; Second season, 50 g ai/ha): 46 | Observed damage (100=total damage to plant, 0=no damage) ([2]; Second season, 75 g ai/ha): 46 | Observed damage (100=total damage to plant, 0=no damage) ([2]; Second season, 100 g ai/ha): 48 | Observed damage (100=total damage to plant, 0=no damage) ([2]; Second season, 150 g ai/ha): 60 | Observed damage (100=total damage to plant, 0=no damage) ([2]; Summer season, 50 g ai/ha): 18 | Observed damage (100=total damage to plant, 0=no damage) ([2]; Summer season, 75 g ai/ha): 38 | Observed damage (100=total damage to plant, 0=no damage) ([2]; Summer season, 100 g ai/ha): 28 | Observed damage (100=total damage to plant, 0=no damage) ([2]; Summer season, 150 g ai/ha): 47 | AMAVI 7DAA Observed ([3]; 75 g ai/ha): 10 | AMAVI 30 DAA Observed ([3]; 75 g ai/ha): 13 | AMAVI 7DAA Observed ([3]; 100 g ai/ha): 20 | AMAVI 30 DAA Observed ([3]; 100 g ai/ha): 20 | AMAVI 7DAA Observed ([3]; 150 g ai/ha): 40 | AMAVI 30 DAA Observed ([3]; 150 g ai/ha): 40 | Observed damage (100=total damage to plant, 0=no damage) ([4]; 50 g ai/ha): 13 | Observed damage (100=total damage to plant, 0=no damage) ([4]; 75 g ai/ha): 34 | Observed damage (100=total damage to plant, 0=no damage) ([4]; 100 g ai/ha): 30 | Observed damage (100=total damage to plant, 0=no damage) ([4]; 150 g ai/ha): 31 | BIDPI 7DAA Observed ([5]; 75 g ai/ha): 8 | BIDPI 30 DAA Observed ([5]; 75 g ai/ha): 8 | BIDPI 7DAA Observed ([5]; 100 g ai/ha): 10 | BIDPI 30 DAA Observed ([5]; 100 g ai/ha): 13 | BIDPI 7DAA Observed ([5]; 150 g ai/ha): 28 | BIDPI 30 DAA Observed ([5]; 150 g ai/ha): 20 | Observed damage (100=total damage to plant, 0=no damage) ([6]; Second season, 50 g ai/ha): 0 | Observed damage (100=total damage to plant, 0=no damage) ([6]; Second season, 75 g ai/ha): 0 | Observed damage (100=total damage to plant, 0=no damage) ([6]; Second season, 100 g ai/ha): 0 | Observed damage (100=total damage to plant, 0=no damage) ([6]; Second season, 150 g ai/ha): 0 | Observed damage (100=total damage to plant, 0=no damage) ([6]; Summer season, 50 g ai/ha): 0 | Observed damage (100=total damage to plant, 0=no damage) ([6]; Summer season, 75 g ai/ha): 0 | Observed damage (100=total damage to plant, 0=no damage) ([6]; Summer season, 100 g ai/ha): 0 | Observed damage (100=total damage to plant, 0=no damage) ([6]; Summer season, 150 g ai/ha): 0 | BRAPL 9DAA Observed ([7]; 75 g ai/ha): 18 | BRAPL 37 DAA Observed ([7]; 75 g ai/ha): 0 | BRAPL 9DAA Observed ([7]; 100 g ai/ha): 15 | BRAPL 37 DAA Observed ([7]; 100 g ai/ha): 0 | BRAPL 9DAA Observed ([7]; 150 g ai/ha): 23 | BRAPL 37 DAA Observed ([7]; 150 g ai/ha): 0 | Observed damage (100=total damage to plant, 0=no damage) ([8]; Second season, 50 g ai/ha): 13 | Observed damage (100=total damage to plant, 0=no damage) ([8]; Second season, 75 g ai/ha): 21 | Observed damage (100=total damage to plant, 0=no damage) ([8]; Second season, 100 g ai/ha): 25 | Observed damage (100=total damage to plant, 0=no damage) ([8]; Second season, 150 g ai/ha): 43 | Observed damage (100=total damage to plant, 0=no damage) ([8]; Summer season, 50 g ai/ha): 18 | Observed damage (100=total damage to plant, 0=no damage) ([8]; Summer season, 75 g ai/ha): 28 | Observed damage (100=total damage to plant, 0=no damage) ([8]; Summer season, 100 g ai/ha): 25 | Observed damage (100=total damage to plant, 0=no damage) ([8]; Summer season, 150 g ai/ha): 30
